Test results from US4593090A, “Novel nitrosourea compounds, method for preparing same, and pharmaceutical composition containing same” (Gogo Kimura, priority 1981, dated 1986).

Columns and labels:
Leukemia L1210 = experiment: Activity against Leukemia L1210, intraperitoneal, increase in life span of mice; type: in vivo, female mice (BDF1 family); settings: for ED (maximum ILS) / ED30: Mus musculus, L1210, ip, ip once a day for 5 successive days; for ED (maximum ILS): daily dosage giving maximum increase of life span, read-out: O.D. (optimum dosage); for ED30: daily dosage increasing average survival days by 30%, read-out: ILS30; for Survivors after 60 days / Max. ILS % / Therapeutic ratio TR: ip; for Survivors after 60 days: 6-membered group; for Max. ILS %: 60-day observation, versus control; for Therapeutic ratio TR: O.D./ILS30
Outline: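 Mice (female BDF1, 20–23 g) carrying 1×10^5 ip-implanted L1210 cells were given daily ip or oral doses for 5 days; ILS% came from mean survival over 60 days relative to controls.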

[1] = Acute toxicity (LD50, Behrens-Karber method); type: in vivo, ICR mice; settings: mouse, in vivo, ip, mortality during 30 days
Protocol: Test compounds, dissolved or suspended in 0.5% aqueous CMC, were each intraperitoneally administered to ICR mice in a dose of 0.1 ml per 10 g body weight. LD50 (mg/kg) value of each test compound was calculated from the mortality of mice during 30 days by the Behrens-Karber method.

CC(C)COC1OC(CO)C(N(C(=O)N(CCCl)N=O)C(C)C)C(O)C1O [Compound 92, 3-isopropyl-3-(isobutyl α-D-glucopyranose-4-yl)-1-(2-chloroethyl)-1-nitrosourea]
ED (maximum ILS) (Leukemia L1210): 100 mg/kg
ED30 (Leukemia L1210): 3.14 mg/kg
Survivors after 60 days (Leukemia L1210): 3/6
Max. ILS % (Leukemia L1210): > 360%
Therapeutic ratio TR (Leukemia L1210): 31.8
LD50 at 720 h [1]: 335 mg/kg

CC(C)COC1OC(CO)C(N(CC2CC2)C(=O)N(CCCl)N=O)C(O)C1O [Compound 95, 3-cyclopropylmethyl-3-(isobutyl α-D-glucopyranose-4-yl)-1-(2-chloroethyl)-1-nitrosourea]
ED (maximum ILS) (Leukemia L1210): 120 mg/kg
ED30 (Leukemia L1210): 3.82 mg/kg
Survivors after 60 days (Leukemia L1210): 3/6
Max. ILS % (Leukemia L1210): > 360%
Therapeutic ratio TR (Leukemia L1210): 31.4
LD50 at 720 h [1]: 400 mg/kg

CCC(C)OC1OC(CO)C(N(C(=O)N(CCCl)N=O)C(C)COC)C(O)C1O [Compound 96, 3-(1-methyl-2-methoxyethyl)-3-(sec-butyl α-D-glucopyranose-4-yl)-1-(2-chloroethyl)-1-nitrosourea]
ED (maximum ILS) (Leukemia L1210): 150 mg/kg
ED30 (Leukemia L1210): 4.46 mg/kg
Survivors after 60 days (Leukemia L1210): 3/6
Max. ILS % (Leukemia L1210): > 355%
Therapeutic ratio TR (Leukemia L1210): 33.6
LD50 at 720 h [1]: 450 mg/kg

C=C(C)CN(C(=O)N(CCCl)N=O)C1C(CO)OC(OC2CCCCC2)C(O)C1O [Compound 97, 3-(2-methyl-2-propenyl)-3-(cyclohexyl α-D-glucopyranose-4-yl)-1-(2-chloroethyl)-1-nitrosourea]
ED (maximum ILS) (Leukemia L1210): 120 mg/kg
ED30 (Leukemia L1210): 3.72 mg/kg
Survivors after 60 days (Leukemia L1210): 3/6
Max. ILS % (Leukemia L1210): > 360%
Therapeutic ratio TR (Leukemia L1210): 32.3
LD50 at 720 h [1]: 390 mg/kg

CCCN(C[C@H]1O[C@H](OC2CCCCC2)[C@H](O)[C@@H](O)[C@H]1O)C(=O)N(CCCl)N=O [Compound 98, 3-n-propyl-3-(cyclohexyl α-D-galactopyranose-6-yl)-1-(2-chloroethyl)-1-nitrosourea]
ED (maximum ILS) (Leukemia L1210): 200 mg/kg
ED30 (Leukemia L1210): 6.45 mg/kg
Survivors after 60 days (Leukemia L1210): 3/6
Max. ILS % (Leukemia L1210): > 350%
Therapeutic ratio TR (Leukemia L1210): 31.0
LD50 at 720 h [1]: 600 mg/kg

CCCCN(C[C@H]1O[C@H](OC2CCCCC2)[C@H](O)[C@@H](O)[C@H]1O)C(=O)N(CCCl)N=O [Compound 99, 3-n-butyl-3-(cyclohexyl α-D-galactopyranose-6-yl)-1-(2-chloroethyl)-1-nitrosourea]
ED (maximum ILS) (Leukemia L1210): 200 mg/kg
ED30 (Leukemia L1210): 6.22 mg/kg
Survivors after 60 days (Leukemia L1210): 3/6
Max. ILS % (Leukemia L1210): > 330%
Therapeutic ratio TR (Leukemia L1210): 32.2
LD50 at 720 h [1]: 630 mg/kg

CCCCCCN(C[C@H]1O[C@H](OC2CCCCC2)[C@H](O)[C@@H](O)[C@H]1O)C(=O)N(CCCl)N=O [Compound 100, 3-n-hexyl-3-(cyclohexyl α-D-galactopyranose-6-yl)-1-(2-chloroethyl)-1-nitrosourea]
ED (maximum ILS) (Leukemia L1210): 200 mg/kg
ED30 (Leukemia L1210): 6.41 mg/kg
Survivors after 60 days (Leukemia L1210): 3/6
Max. ILS % (Leukemia L1210): > 330%
Therapeutic ratio TR (Leukemia L1210): 31.2
LD50 at 720 h [1]: 580 mg/kg

CCOCCN(C[C@H]1O[C@H](OC2CCCCC2)[C@H](O)[C@@H](O)[C@H]1O)C(=O)N(CCCl)N=O [Compound 102, 3-(2-ethoxyethyl)-3-(cyclohexyl α-D-galactopyranose-6-yl)-1-(2-chloroethyl)-1-nitrosourea]
ED (maximum ILS) (Leukemia L1210): 200 mg/kg
ED30 (Leukemia L1210): 3.81 mg/kg
Survivors after 60 days (Leukemia L1210): 5/6
Max. ILS % (Leukemia L1210): > 625%
Therapeutic ratio TR (Leukemia L1210): 52.5
LD50 at 720 h [1]: 680 mg/kg

COC(C)CN(C[C@H]1O[C@H](OC2CCCCC2)[C@H](O)[C@@H](O)[C@H]1O)C(=O)N(CCCl)N=O (stereo partly drawn) [Compound 103, 3-(2-methoxy-n-propyl)-3-(cyclohexyl α-D-galactopyranose-6-yl)-1-(2-chloroethyl)-1-nitrosourea]
ED (maximum ILS) (Leukemia L1210): 200 mg/kg
ED30 (Leukemia L1210): 3.63 mg/kg
Survivors after 60 days (Leukemia L1210): 5/6
Max. ILS % (Leukemia L1210): > 625%
Therapeutic ratio TR (Leukemia L1210): 55.1
LD50 at 720 h [1]: 685 mg/kg

COc1ccc(CN(C[C@H]2O[C@H](OC3CCCCC3)[C@H](O)[C@@H](O)[C@H]2O)C(=O)N(CCCl)N=O)cc1 [Compound 104, 3-(p-methoxybenzyl)-3-(cyclohexyl α-D-galactopyranose-6-yl)-1-(2-chloroethyl)-1-nitrosourea]
ED (maximum ILS) (Leukemia L1210): 200 mg/kg
ED30 (Leukemia L1210): 6.61 mg/kg
Survivors after 60 days (Leukemia L1210): 3/6
Max. ILS % (Leukemia L1210): > 325%
Therapeutic ratio TR (Leukemia L1210): 30.3
LD50 at 720 h [1]: 630 mg/kg

CCCCO[C@H]1O[C@H](CN(CCC)C(=O)N(CCCl)N=O)[C@H](O)[C@H](O)[C@H]1O [Compound 106, 3-n-propyl-3-(n-butyl α-D-galactopyranose-6-yl)-1-(2-chloroethyl)-1-nitrosourea]
ED (maximum ILS) (Leukemia L1210): 160 mg/kg
ED30 (Leukemia L1210): 3.74 mg/kg
Survivors after 60 days (Leukemia L1210): 3/6
Max. ILS % (Leukemia L1210): > 340%
Therapeutic ratio TR (Leukemia L1210): 42.8
LD50 at 720 h [1]: 430 mg/kg

CC(C)CO[C@H]1O[C@H](CN(CC(C)C)C(=O)N(CCCl)N=O)[C@H](O)[C@H](O)[C@H]1O [Compound 107, 3-isobutyl-3-(isobutyl α-D-galactopyranose-6-yl)-1-(2-chloroethyl)-1-nitrosourea]
ED (maximum ILS) (Leukemia L1210): 200 mg/kg
ED30 (Leukemia L1210): 5.87 mg/kg
Survivors after 60 days (Leukemia L1210): 3/6
Max. ILS % (Leukemia L1210): > 360%
Therapeutic ratio TR (Leukemia L1210): 34.1
LD50 at 720 h [1]: 650 mg/kg

Cc1ccc(CN(C[C@H]2O[C@H](OCC(C)C)[C@H](O)[C@@H](O)[C@H]2O)C(=O)N(CCCl)N=O)cc1 [Compound 111, 3-(p-methylbenzyl)-3-(isobutyl α-D-galactopyranose-6-yl)-1-(2-chloroethyl)-1-nitrosourea]
ED (maximum ILS) (Leukemia L1210): 200 mg/kg
ED30 (Leukemia L1210): 7.04 mg/kg
Survivors after 60 days (Leukemia L1210): 3/6
Max. ILS % (Leukemia L1210): > 345%
Therapeutic ratio TR (Leukemia L1210): 28.4
LD50 at 720 h [1]: 600 mg/kg

CC(C)CO[C@H]1O[C@H](CN(Cc2cccs2)C(=O)N(CCCl)N=O)[C@H](O)[C@H](O)[C@H]1O [Compound 112, 3-(thiophene-2-yl-methyl)-3-(isobutyl α-D-galactopyranose-6-yl)-1-(2-chloroethyl)-1-nitrosourea]
ED (maximum ILS) (Leukemia L1210): 180 mg/kg
ED30 (Leukemia L1210): 4.17 mg/kg
Survivors after 60 days (Leukemia L1210): 3/6
Max. ILS % (Leukemia L1210): > 350%
Therapeutic ratio TR (Leukemia L1210): 43.2
LD50 at 720 h [1]: 480 mg/kg

COC(C)CO[C@H]1O[C@H](CN(CC2CC2)C(=O)N(CCCl)N=O)[C@H](O)[C@H](O)[C@H]1O (stereo partly drawn) [Compound 116, 3-cyclopropylmethyl-3-(2-methoxy-n-propyl α-D-galactopyranose-6-yl)-1-(2-chloroethyl)-1-nitrosourea]
ED (maximum ILS) (Leukemia L1210): 150 mg/kg
ED30 (Leukemia L1210): 2.51 mg/kg
Survivors after 60 days (Leukemia L1210): 6/6
Max. ILS % (Leukemia L1210): > 700%
Therapeutic ratio TR (Leukemia L1210): 59.8
LD50 at 720 h [1]: 450 mg/kg

CCCCO[C@H]1O[C@H](CO)[C@H](O)[C@H](O)[C@H]1N(C)C(=O)N(CCCl)N=O [Compound 118, 3-methyl-3-(n-butyl α-D-galactopyranose-2-yl)-1-(2-chloroethyl)-1-nitrosourea]
ED (maximum ILS) (Leukemia L1210): 130 mg/kg
ED30 (Leukemia L1210): 4.45 mg/kg
Survivors after 60 days (Leukemia L1210): 3/6
Max. ILS % (Leukemia L1210): > 350%
Therapeutic ratio TR (Leukemia L1210): 29.2
LD50 at 720 h [1]: 400 mg/kg

CCCCO[C@H]1O[C@H](CO)[C@H](O)[C@H](O)[C@H]1N(CCC)C(=O)N(CCCl)N=O [Compound 119, 3-n-propyl-3-(n-butyl α-D-galactopyranose-2-yl)-1-(2-chloroethyl)-1-nitrosourea]
ED (maximum ILS) (Leukemia L1210): 200 mg/kg
ED30 (Leukemia L1210): 5.95 mg/kg
Survivors after 60 days (Leukemia L1210): 3/6
Max. ILS % (Leukemia L1210): > 360%
Therapeutic ratio TR (Leukemia L1210): 33.6
LD50 at 720 h [1]: 600 mg/kg

COc1ccc(CN(C(=O)N(CCCl)N=O)[C@H]2[C@@H](OCC(C)C)O[C@H](CO)[C@H](O)[C@@H]2O)cc1 [Compound 120, 3-(p-methoxybenzyl)-3-(isobutyl α-D-galactopyranose-2-yl)-1-(2-chloroethyl)-1-nitrosourea]
ED (maximum ILS) (Leukemia L1210): 170 mg/kg
ED30 (Leukemia L1210): 6.59 mg/kg
Survivors after 60 days (Leukemia L1210): 3/6
Max. ILS % (Leukemia L1210): > 340%
Therapeutic ratio TR (Leukemia L1210): 25.8
LD50 at 720 h [1]: 550 mg/kg

CCN(C(=O)N(CCCl)N=O)[C@H]1[C@@H](OCC(C)C)O[C@H](CO)[C@H](O)[C@@H]1O [Compound 121, 3-ethyl-3-(isobutyl α-D-galactopyranose-2-yl)-1-(2-chloroethyl)-1-nitrosourea]
ED (maximum ILS) (Leukemia L1210): 160 mg/kg
ED30 (Leukemia L1210): 5.99 mg/kg
Survivors after 60 days (Leukemia L1210): 3/6
Max. ILS % (Leukemia L1210): > 350%
Therapeutic ratio TR (Leukemia L1210): 26.7
LD50 at 720 h [1]: 480 mg/kg

CC(C)CO[C@H]1O[C@H](CO)[C@H](O)[C@H](O)[C@H]1N(CC(C)C)C(=O)N(CCCl)N=O [Compound 122, 3-isobutyl-3-(isobutyl α-D-galactopyranose-2-yl)-1-(2-chloroethyl)-1-nitrosourea]
ED (maximum ILS) (Leukemia L1210): 200 mg/kg
ED30 (Leukemia L1210): 6.85 mg/kg
Survivors after 60 days (Leukemia L1210): 3/6
Max. ILS % (Leukemia L1210): > 355%
Therapeutic ratio TR (Leukemia L1210): 29.2
LD50 at 720 h [1]: 715 mg/kg

CC(C)CO[C@H]1O[C@H](CO)[C@H](O)[C@H](N(CC(C)C)C(=O)N(CCCl)N=O)[C@H]1O [Compound 125, 3-isobutyl-3-(isobutyl α-D-galactopyranose-3-yl)-1-(2-chloroethyl)-1-nitrosourea]
ED (maximum ILS) (Leukemia L1210): 250 mg/kg
ED30 (Leukemia L1210): 7.67 mg/kg
Survivors after 60 days (Leukemia L1210): 3/6
Max. ILS % (Leukemia L1210): > 350%
Therapeutic ratio TR (Leukemia L1210): 32.6
LD50 at 720 h [1]: 780 mg/kg
